In US11753408B2, “Compounds and method for blocking transmission of malarial parasite” (The United States of America, as represented by the …, priority 2016, dated 2023):
pEC50: −log10 of the molar value.

How the values were obtained:
Solubility at pH 7.4 = assay type: physicochemical
[1] = tested on: Stage III-V gametocytes (blood stage P. falciparum parasites); test: In vitro drug activity on gametocytes (AlamarBlue viability assay); assay type: cell-based, Plasmodium falciparum; conditions: P. falciparum stage III-V gametocytes, 72 h incubation, AlamarBlue; read-out: Gametocyte EC50
How it was run: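 P. falciparum 3D7 stage III–V gametocytes (also HB3, Dd2), enriched by 50 mM N-acetylglucosamine and Percoll gradient, seeded at 20,000/well with compound for 72 h at 37° C, 5% CO2. AlamarBlue then added for 24 h; viability read as fluorescence (Ex 525, Em 598 nm).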

[2] = Microsomal stability (rat); assay type: in vitro ADME; conditions: rat microsomes
PAMPA permeability = assay type: in vitro ADME; conditions: PAMPA
[3] = tested on: Asexual parasites of P. falciparum strain 3D7; test: In vitro drug activity on asexual parasites (SYBR Green assay); assay type: cell-based, Plasmodium falciparum; conditions: P. falciparum 3D7 asexual parasites, 72 h, SYBR Green
How it was run: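 3D7 parasites at 0.5% parasitemia and 2% hematocrit were exposed to drugs (DMSO ≤0.5%) for 72 h under standard culture conditions, in duplicate. After freeze-thaw lysis, SYBR Green I lysis buffer was added for 30 min at room temperature, and fluorescence was read at 490/520 nm.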

Row | Sol @ pH 7.4 (ug/mL) (Solubility at pH 7.4) | Microsomal Stability (rat) T1/2 [2] | PAMPA Permeability (×10^6 cm/s) (PAMPA permeability) | pEC50 [3] | Structure (SMILES) | pEC50 [1]
1 | >64.0 ug/mL | >30.0 min | 1040.6 ×10^6 cm/s | 6.54 | CN(C)Cc1ccc(-c2ccc3ncc4ccc(=O)n(-c5cccc(C#N)c5)c4c3c2)cc1 [Compound 2] | 6.37
2 | <0.1 ug/mL | 12.1 min | 621.2 ×10^6 cm/s | 6.95 | Cc1ccc(C#N)cc1-n1c(=O)ccc2cnc3ccc(-c4ccc(Cl)cc4)cc3c21 [Compound 3] | 6.58
3 | <1 ug/mL | 9.6 min | 21 ×10^6 cm/s | 7.83 | Cc1cc(N2CCNCC2)c(C#N)cc1-n1c(=O)ccc2cnc3ccc(-c4ccc(Cl)cc4)cc3c21 [Compound 4] | 7.26
4 | <1 ug/mL | 14.5 min | <1 ×10^6 cm/s | 7.22 | Cc1c(C#N)cccc1-n1c(=O)ccc2cnc3ccc(-c4ccc(Cl)cc4)cc3c21 [Compound 8] | 6.86
5 | 58.6 ug/mL | 10.9 min | 1492.3 ×10^6 cm/s | 6.18 | CCN(CC)Cc1ccc(-c2ccc3ncc4ccc(=O)n(-c5cc(C#N)ccc5C)c4c3c2)cc1 [Compound 9] | 5.59
6 | <1.0 ug/mL | >30.0 min | 505.6 ×10^6 cm/s | 7.93 | N#Cc1cccc(-n2c(=O)ccc3cnc4ccc(-c5ccc(N)nc5)cc4c32)c1 [Compound 20] | 7.65
7 | 1.1 ug/mL | 12.7 min | 606 ×10^6 cm/s | 7.86 | Cc1ccc(C#N)cc1-n1c(=O)ccc2cnc3ccc(-c4ccc(N)nc4)cc3c21 [Compound 21] | 7.77
8 | 1.48 ug/mL | 3.5 min | 58.15 ×10^6 cm/s | 7.65 | N#Cc1cc(-n2c(=O)ccc3cnc4ccc(-c5ccc(N)nc5)cc4c32)ccc1N1CCOCC1 [Compound 23] | 7.39
9 | 5.7 ug/mL | 19 min | 547.9 ×10^6 cm/s | 8.23 | Cc1c(C#N)cccc1-n1c(=O)ccc2cnc3ccc(-c4ccc(N)nc4)cc3c21 [Compound 24] | 7.63
10 | <1.0 ug/mL | >30.0 min | <1.5 ×10^6 cm/s | 7.83 | CS(=O)(=O)c1ccc(-n2c(=O)ccc3cnc4ccc(-c5ccc(Cl)cc5)cc4c32)cc1 [Compound 25] | 6.93
11 | <1.0 ug/mL | >30.0 min | <1.0 ×10^6 cm/s | – | CCS(=O)(=O)c1ccc(-n2c(=O)ccc3cnc4ccc(-c5ccc(Cl)cc5)cc4c32)cc1 [Compound 27] | 6.97
12 | <1.0 ug/mL | >30.0 min | 33.9 ×10^6 cm/s | 7.79 | CS(=O)(=O)c1ccc(-n2c(=O)ccc3cnc4ccc(-c5ccc(Cl)c(N)c5)cc4c32)cc1 [Compound 28] | 7.02
13 | 30.4 ug/mL | >30.0 min | 677.9 ×10^6 cm/s | 6.93 | CN(C)Cc1ccc(-c2ccc3ncc4ccc(=O)n(-c5ccc(S(C)(=O)=O)cc5)c4c3c2)cc1 [Compound 30] | 6.47
14 | <1.0 ug/mL | >30.0 min | 40.7 ×10^6 cm/s | 7.48 | COc1cc(-c2ccc3ncc4ccc(=O)n(-c5ccc(S(C)(=O)=O)cc5)c4c3c2)ccc1Cl [Compound 31] | 6.65
15 | <1.0 ug/mL | >30.0 min | 39.6 ×10^6 cm/s | 7.07 | CS(=O)(=O)c1ccc(-n2c(=O)ccc3cnc4ccc(-c5ccc(Cl)c(C#N)c5)cc4c32)cc1 [Compound 32] | 7.03
16 | <1.0 ug/mL | 12.7 min | 32.5 ×10^6 cm/s | 6.66 | O=c1ccc2cnc3ccc(-c4ccc(Cl)cc4)cc3c2n1-c1ccc(S(=O)(=O)N2CCOCC2)cc1 [Compound 38] | 6.73
17 | >71.00 ug/mL | 9.45 min | 788.14 ×10^6 cm/s | – | CN(C)Cc1ccc(-c2ccc3ncc4ccc(=O)n(-c5cccc(S(C)(=O)=O)c5)c4c3c2)cc1 [Compound 55] | 5.27

Row | Sol @ pH 7.4 (ug/mL) (Solubility at pH 7.4) | Microsomal Stability (rat) T1/2 [2] | PAMPA Permeability (×10^6 cm/s) (PAMPA permeability) | pEC50 [3] | Structure (SMILES) | pEC50 [1]
18 | 0.01 ug/mL | >30.00 min | 716.98 ×10^6 cm/s | – | CS(=O)(=O)c1cccc(-n2c(=O)ccc3cnc4ccc(-c5ccc(Cl)cc5)cc4c32)c1 [Compound 56] | 5.81
19 | <0.10 ug/mL | 13.5 min | 1527.98 ×10^6 cm/s | – | CS(=O)(=O)c1ccc(-n2c(=O)ccc3cnc4ccc(-c5ccc(Cl)cc5)cc4c32)cc1N1CCOCC1 [Compound 58] | 6.05
20 | 21.28 ug/mL | >30.00 min | 1646.44 ×10^6 cm/s | – | CN(C)Cc1cccc(-c2ccc3ncc4ccc(=O)n(-c5ccc(S(C)(=O)=O)cc5)c4c3c2)c1 [Compound 60] | 5.71
21 | <1 ug/mL | 1.4 min | 135 ×10^6 cm/s | – | CS(=O)(=O)c1ccc(-n2c(=O)ccc3cnc4ccc(-c5ccc(Cl)cc5)cc4c32)cc1CN1CCOCC1 [Compound 66] | 6.46
22 | <1 ug/mL | 1.7 min | 1449.1 ×10^6 cm/s | – | CN(C)Cc1cc(-n2c(=O)ccc3cnc4ccc(-c5ccc(Cl)cc5)cc4c32)ccc1S(C)(=O)=O [Compound 67] | 5.87
23 | 49.68 ug/mL | 7.1 min | 50.85 ×10^6 cm/s | – | CS(=O)(=O)c1cccc(-n2c(=O)ccc3cnc4ccc(-c5ccc(N)nc5)cc4c32)c1 [Compound 80] | 6.67
24 | 5.62 ug/mL | >30.00 min | 58.31 ×10^6 cm/s | – | CS(=O)(=O)c1ccc(-n2c(=O)ccc3cnc4ccc(-c5ccc(N)nc5)cc4c32)cc1N1CCOCC1 [Compound 83] | 7.13
25 | <1.0 ug/mL | >30.0 min | <1.0 ×10^6 cm/s | – | O=C1NCc2cc(-n3c(=O)ccc4cnc5ccc(-c6ccc(Cl)cc6)cc5c43)ccc21 [Compound 339] | 8.04
26 | <1.0 ug/mL | 19.2 min | 238.8 ×10^6 cm/s | – | O=C1NCc2ccc(-n3c(=O)ccc4cnc5ccc(-c6ccc(Cl)cc6)cc5c43)cc21 [Compound 344] | 5.82
27 | 57.74 ug/mL | – | 8.76 ×10^6 cm/s | 6.35 | CCN(CC)Cc1ccc(-c2ccc3ncc4ccc(=O)n(-c5ccc6c(c5)CNC6=O)c4c3c2)cc1 [Compound 363] | 6.07
28 | 55.9 ug/mL | – | <1.8 ×10^6 cm/s | 6.32 | O=C(O)CN1Cc2cc(-n3c(=O)ccc4cnc5ccc(-c6ccc(Cl)cc6)cc5c43)ccc2C1=O [Compound 365] | 4.51
29 | 14.8 ug/mL | – | 47.8 ×10^6 cm/s | 5.91 | COC(=O)CN1Cc2cc(-n3c(=O)ccc4cnc5ccc(-c6ccc(CN(C)C)cc6)cc5c43)ccc2C1=O [Compound 366] | 5.42
30 | >70 ug/mL | >30 min | 2.3 ×10^6 cm/s | – | O=C1NCc2cc(-n3c(=O)ccc4cnc5ccc(-c6ccc(CN7CCC7)cc6)cc5c43)ccc21 [Compound 378] | 5.81
31 | 11.8 ug/mL | – | 2 ×10^6 cm/s | 7.55 | Nc1ccc(-c2ccc3ncc4ccc(=O)n(-c5ccc6c(c5)CNC6=O)c4c3c2)cn1 [Compound 388] | 7.05
32 | <1.0 ug/mL | – | <9.7 ×10^6 cm/s | 7.66 | Nc1ccc(-c2ccc3ncc4ccc(=O)n(-c5ccc6c(c5)CC(=O)N6)c4c3c2)cn1 [Compound 389] | 7.19
33 | 6.26 ug/mL | – | <1.10 ×10^6 cm/s | 8.03 | Nc1ccc(-c2ccc3ncc4ccc(=O)n(-c5ccc6c(c5)CCNC6=O)c4c3c2)cn1 [Compound 393] | 7.51
34 | 11.3 ug/mL | >30 min | 3.9 ×10^6 cm/s | – | Nc1ccc(-c2ccc3ncc4ccc(=O)n(-c5ccc6c(c5)C(=O)NC6=O)c4c3c2)cn1 [Compound 395] | 4.34
